According to ChEMBL document CHEMBL1697781, “Assessment of the health effects of chemicals in humans: II. Construction of an adverse effects database for QSAR modeling” (Curr Drug Discov Technol, 2004):

Key:
Settings in all cases: human; call rule not given here
Hepatotoxicity [1] = experiment: FDA HLAED, lactate dehydrogenase (LDH) increase
Hepatotoxicity [2] = experiment: FDA HLAED, serum glutamic pyruvic transaminase (SGPT) increase
Hepatotoxicity [3] = experiment: FDA HLAED, serum glutamic oxaloacetic transaminase (SGOT) increase
Hepatotoxicity [4] = experiment: FDA HLAED, gamma-glutamyl transferase (GGT) increase
Hepatotoxicity [5] = experiment: FDA HLAED, alkaline phosphatase increase
Hepatotoxicity [6] = experiment: FDA HLAED, liver enzyme composite activity
Wherever GGT Increase - Index Value is given: reference of the scale not given here.
Wherever LDH Increase - Index Value is given: reference of the scale not given here.

Row | Compound | LDH Increase - Activity Score (Hepatotoxicity [1]) | LDH Increase - Index Value (Hepatotoxicity [1]) | LDH Increase - Number of Reports (Hepatotoxicity [1]) | SGPT Increase - Activity Score (Hepatotoxicity [2]) | SGPT Increase - Index Value (Hepatotoxicity [2]) | SGPT Increase - Number of Reports (Hepatotoxicity [2]) | SGOT Increase - Activity Score (Hepatotoxicity [3]) | SGOT Increase - Index Value (Hepatotoxicity [3]) | SGOT Increase - Number of Reports (Hepatotoxicity [3]) | GGT Increase - Activity Score (Hepatotoxicity [4]) | GGT Increase - Index Value (Hepatotoxicity [4]) | GGT Increase - Number of Reports (Hepatotoxicity [4]) | Alkaline Phosphatase Increase - Activity Score (Hepatotoxicity [5]) | Alkaline Phosphatase Increase - Index Value (Hepatotoxicity [5]) | Alkaline Phosphatase Increase - Number of Reports (Hepatotoxicity [5]) | Composite Activity - Active (Hepatotoxicity [6]) | Composite Activity - Marginal (Hepatotoxicity [6]) | Composite Activity - Score (Hepatotoxicity [6]) | Composite Activity - Active (Hepatotoxicity [6]; Liver) | Composite Activity - Marginal (Hepatotoxicity [6]; Liver) | further results
1 | CC(C)(C)NC[C@H](O)COc1nsnc1N1CCOCC1 [TIMOLOL] | Inactive | 0.1 | < 4 | Inactive | 0.1 | < 4 | Inactive | 0.1 | < 4 | Inactive | 0 | < 4 | Inactive | 0.1 | < 4 | 0 | 0 | Inactive |  |  | 
2 | Cc1cn([C@H]2C[C@H](N=[N+]=[N-])[C@@H](CO)O2)c(=O)[nH]c1=O [ZIDOVUDINE] | Active | 5.7 | >= 4 | Active | 4.8 | >= 4 | Active | 12.7 | >= 4 | Inactive | 0.9 | < 4 | Active | 5.1 | >= 4 | 4 | 0 | Active |  |  | 
3 | CC1(C)C(C=C(Cl)Cl)C1C(=O)OCc1cccc(Oc2ccccc2)c1 (stereo unspecified) [PERMETHRIN] | Inactive | 0 | < 4 | Inactive | 0 | < 4 | Inactive | 0 | < 4 | Inactive | 0 | < 4 | Inactive | 0 | < 4 | 0 | 0 | Inactive |  |  | 
4 | C[C@H]1O[C@H](O[C@H]2[C@H](O)[C@@H](O)[C@@H](O[C@H]3[C@H](O)[C@@H](O)C(O)O[C@@H]3CO)O[C@@H]2CO)[C@H](O)[C@@H](O)[C@@H]1N[C@H]1C=C(CO)[C@@H](O)[C@H](O)[C@H]1O (stereo partly specified) [ACARBOSE] | Inactive | 2.6 | < 4 | Active | 5.2 | >= 4 | Active | 5.2 | >= 4 | Active | 4.3 | >= 4 | Inactive | 0 | < 4 | 3 | 0 | Active |  |  | 
5 | CO[C@H]1/C=C/O[C@@]2(C)Oc3c(C)c(O)c4c(c3C2=O)C2=NC3(CCN(CC(C)C)CC3)NC2=C(NC(=O)/C(C)=C\C=C\[C@H](C)[C@H](O)[C@@H](C)[C@@H](O)[C@@H](C)[C@H](OC(C)=O)[C@@H]1C)C4=O [RIFABUTIN] | Inactive | 5.3 | < 4 | Active | 31.8 | >= 4 | Active | 31.8 | >= 4 | Active | 18.5 | >= 4 | Active | 15.9 | >= 4 |  |  |  | 4 | 0 | Composite Activity - Score (Hepatotoxicity [6]; Liver): Active
6 | NCCCC(O)(P(=O)(O)O)P(=O)(O)O [ALENDRONIC ACID] | Inactive | 1.5 | >= 4 | Inactive | 1.4 | >= 4 | Inactive | 1.4 | >= 4 | Inactive | 0.8 | >= 4 | Inactive | 2.5 | >= 4 |  |  |  | 0 | 0 | Composite Activity - Score (Hepatotoxicity [6]; Liver): Inactive
7 | CC(=O)OCC(=O)[C@@]12OC3(CCCC3)O[C@@H]1C[C@H]1[C@@H]3CCC4=CC(=O)C=C[C@]4(C)[C@@]3(F)[C@@H](O)C[C@@]12C [AMCINONIDE] | Inactive | 0 | < 4 | Inactive | 0 | < 4 | Inactive | 0 | < 4 | Inactive | 0 | < 4 | Inactive | 0 | < 4 | 0 | 0 | Inactive |  |  | 
8 | CCC(=O)OCC(=O)[C@@]1(OC(=O)CC)[C@H](C)C[C@H]2[C@H]3[C@H]([C@@H](O)C[C@@]21C)[C@@]1(C)C=CC(=O)C=C1C[C@H]3Cl [ALCLOMETASONE DIPROPIONATE] | Inactive | 0 | < 4 | Inactive | 0 | < 4 | Inactive | 0 | < 4 | Inactive | 0 | < 4 | Inactive | 0 | < 4 | 0 | 0 | Inactive |  |  | 
9 | c1ccc([C@H]2CN3CCSC3=N2)cc1 [LEVAMISOLE] | Active | 29.4 | >= 4 | Inactive | 8.8 | < 4 | Active | 26.5 | >= 4 | Inactive | 5.9 | < 4 | Active | 38.3 | >= 4 |  |  |  | 3 | 0 | Composite Activity - Score (Hepatotoxicity [6]; Liver): Active
10 | CC(C)(C)NC[C@H](O)COc1ccccc1C1CCCC1 [PENBUTOLOL] | Inactive | 0 | < 4 | Inactive | 0 | < 4 | Inactive | 0 | < 4 | Inactive | 0 | < 4 | Inactive | 0 | < 4 | 0 | 0 | Inactive |  |  | 
11 | Nc1c2c(nc3ccccc13)CCCC2 [TACRINE] | Active | 19 | >= 4 | Active | 170 | >= 4 | Active | 58.1 | >= 4 | Active | 17.4 | >= 4 | Active | 14.1 | >= 4 |  |  |  | 5 | 0 | Composite Activity - Score (Hepatotoxicity [6]; Liver): Active
12 | O=C1c2c(O)ccc(O)c2C(=O)c2c(NCCNCCO)ccc(NCCNCCO)c21 [MITOXANTRONE] | Inactive | 0 | < 4 | Inactive | 4.5 | < 4 | Active | 13.5 | < 4 | Inactive | 0 | < 4 | Inactive | 4.5 | < 4 | 1 | 0 | Inactive |  |  | 
